Data: patent US9198891B2, “Method of treating cancer by inhibition of protein kinase-like endoplasmic reticulum protein kinase” (New York University, priority 2010, dated 2015)

Test system: Mouse PERK
Assay: In vitro kinase inhibition assay: PERK-mediated eIF2α phosphorylation
Type: biochemical
Conditions: for Activity (ability to inhibit PERK-mediated eIF2α phosphorylation in vitro): compounds selected in the initial VLS; for relative inhibition of PERK among the six active compounds: initial VLS screening; for inhibition of PERK-dependent eIF2α phosphorylation in vitro: tested at 10 μM (FIG. 1C)
Description: Mouse PERK proteins comprising the cytoplasmic portion of the molecule with the delta loop deleted were pre-incubated with varying concentrations of compound at room temperature for 10 minutes. This construct thus contains close to a minimal catalytic domain of PERK, closely similar but not identical to SEQ ID NO: 1. The kinase reaction was initiated by the addition of 2 μM ATP, 0.2 μM γ-[^32P]ATP, 10 μM eIF2α and allowed to proceed at room temperature for 15 minutes (Marciniak et al., “Activation-Dependent Substrate Recruitment by the Eukaryotic Translation Initiation Factor 2 Kinase PERK,” J Cell Biol 172: 201-9 (2006), which is hereby incorporated by reference in its entirety). The phosphorylated eIF2α was then separated on 14% SDS-PAGE and visualized by autoradiography. To determine the selectivity of the compounds, their ability to inhibit protein kinase PKA was also evaluated. Briefly, PKA was pre-incubated with the compound at 40 μM, the highest concentration used in the PERK assay, for 10 minutes. Then, 10 μM ATP, 0.2 μM γ-[^32P]ATP and 10 μM GSTag were added, followed by the incubation at room temperature for 15 minutes.

SMILES	Activity (ability to inhibit PERK-mediated eIF2α phosphorylation in vitro)	concentration range over which PERK inhibition is displayed	relative inhibition of PERK among the six active compounds	inhibition of PERK-dependent eIF2α phosphorylation in vitro
ON=C1CC2C3CC(C12)C1/C(=N\O)CC31 (stereo not drawn) [Compound A1]	inactive	–	–	–
O=C(CNC(=O)c1ccco1)N/N=C/c1ccc(O)cc1 [Compound A2]	inactive	–	–	–
Cc1ccccc1N1C(=O)CC(SC(=N)N/N=C/c2ccc(O)c(O)c2)C1=O (stereo not drawn) [Compound A3]	inactive	–	–	–
COc1cc(/C=N\N(C)c2nc(-c3ccccc3)cc(-c3ccc(Br)cc3)n2)ccc1O [Compound A4]	active	narrow range of concentration	relatively stronger inhibition of PERK	active
CCC(Oc1ccccc1)C(=O)Nc1sc2c(c1C(N)=O)CCC(C(C)(C)C)C2 (stereo not drawn) [Compound B2]	active	–	–	–
O=C(Nc1cccc(Oc2ccc3c(c2)C(=O)N(c2ccc(O)cc2)C3=O)c1)c1ccco1 [Compound B6]	active	–	–	–
Cc1ccc(OCCOCCOc2ccccc2/C=C2\SC(=N)NC2=O)cc1 [Compound C1]	active	–	–	–
O=C(Nc1ccc(O)cc1C(=O)O)c1ccc(C(=O)Nc2ccc(O)cc2C(=O)O)cc1 [Compound C3]	inactive	–	–	–
NS(=O)(=O)c1ccc(CNC(=O)/C=C/c2ccc3c(c2)OCO3)cc1 [Compound C6]	inactive	–	–	–
O=C(COc1ccccc1)NC(=S)Nc1ccc(O)c(-c2nc3ccccc3s2)c1 [Compound D1]	active	1 to 25 µM	relatively stronger inhibition of PERK	active
CCC(Sc1nnc(COc2ccccc2C)n1C)C(=O)Nc1ccc(C(C)=O)cc1 (stereo not drawn) [Compound D4]	inactive	–	–	–
CCOC(=O)c1c(NC(=O)CSc2nc(N)cc(=O)[nH]2)sc2c1CCC2 [Compound E1]	active	–	–	–
